Molecules are shown by their SMILES. The source made the active and inactive calls. The calls are words filed in the database; no cut-off is given here.

Broadly, the IC50 is the point on the concentration scale where inhibition reaches its midpoint.

For one experiment, the target named is Casein kinase II (Homo sapiens, UniProt P19784+P67870+P68400). The experiment is described as follows: Inhibition of CK2 kinase (unknown origin) using RRRDDDSDDD as substrate after 10 mins by topcount analysis in presence of [gamma-32P]ATP and 90 uM ATP. The format is protein-complex assay.
Experiment [1] deals with Casein kinase II (Homo sapiens) (UniProt P67870+P68400+P19784). The experiment is described as follows: Competitive inhibition of CK2 kinase (unknown origin) by Lineweaver-Burk plot analysis in presence of ATP. Format: protein-complex assay.

`COc1ccc(/C=C2\Oc3cc(OCC(=O)O)ccc3C2=O)cc1OC`: the concentration for half-maximal inhibition (IC50) at Casein kinase II was 6 µM. In experiment [1], the “competitive inhibition (qualitative)” value was “Active”. As for `O=C(O)COc1ccc2c(c1)O/C(=C\c1ccco1)C2=O`, the IC50 at Casein kinase II stood at 11 µM. On to `COc1ccc(-c2nc3c(sc4nc(C(F)F)cc(C)c43)c(=O)[nH]2)cc1Cn1cc([N+](=O)[O-])cn1`, for which the IC50 on Casein kinase II is 7.7 µM. For the same compound, the “competitive inhibition (qualitative)” value in experiment [1] was “Active”. In the case of `COc1cc(/C=C2/C(=O)NN(c3ccc(C)c(Cl)c3)C2=O)ccc1OCC(=O)O`, the IC50 at Casein kinase II was found to be 28.9 µM.

Take `CCC(=O)Nc1nnc(-c2ccc([N+](=O)[O-])cc2)s1`: the IC50 at Casein kinase II stood at 27.9 µM.

`COc1ccc(-c2nc(C(N)=O)c3[nH]c(=O)n(-c4ccc(OC)c(OC)c4)c3n2)cc1`: the IC50 at Casein kinase II was found to be 50 µM. For the compound `Nc1nnc(-c2ccc(C(=O)O)cc2)s1`, the IC50 on Casein kinase II was found to be 27.4 µM.

In the case of `O=c1[nH]nc(-c2ccco2)c2cn(-c3cccc([N+](=O)[O-])c3)nc12`, the IC50 at Casein kinase II came to 46.3 µM. As to `COc1cccc(NC(=O)Nc2nnc(-c3ccc([N+](=O)[O-])cc3)s2)c1`, at Casein kinase II, the IC50 amounted to 7.6 µM. Besides, the “competitive inhibition (qualitative)” value in experiment [1] is “Active”.

Turning to `O=C(COC(=O)c1c[nH]c2ccccc12)Nc1ccc2[nH]c(=O)[nH]c2c1`, the half-maximal inhibitory concentration (IC50) at Casein kinase II came to 28.5 µM. Turning to `O=c1cc(-c2ccc(O)cc2)oc2c1ccc1ccccc12`, at Casein kinase II, the IC50 came to 9.7 µM. Besides, the “competitive inhibition (qualitative)” value in experiment [1] was “Active”. `CCOc1ccc(C2=N/C(=C/c3ccc(C(=O)O)cc3)C(=O)O2)cc1`: the IC50 on Casein kinase II is 43 µM.

Turning to `O=C1OC(c2ccc(-c3ccccc3)cc2)=N/C1=C/c1ccc(C(=O)O)cc1`, the IC50 at Casein kinase II stood at 13.9 µM. As to `O=c1[nH]n2c(=O)c3c([nH]c2c1/N=N/c1ccccc1Cl)CCC3`, the IC50 on Casein kinase II worked out at 3.8 µM. For the same compound, the “competitive inhibition (qualitative)” value in experiment [1] was “Active”.

For the compound `Cc1cc(Br)c(N2C(=O)NC(=O)C(/C=N/c3ccc(C(=O)O)c(O)c3)C2=O)cc1C` (stereo unspecified), on Casein kinase II, the IC50 was 28.6 µM. With `O=c1[nH]c(-c2ccc(OCc3ccccc3)cc2)nc2c1cnn2-c1ccccc1`, the IC50 at Casein kinase II was determined as 11.1 µM. As for `CCOc1cc(-c2nc3c(cnn3-c3ccccc3)c(=O)[nH]2)ccc1O`, the IC50 on Casein kinase II was found to be 39.9 µM.

For the compound `CC(C)(C)c1ccc(C2=N/C(=C/c3ccc(C(=O)O)cc3)C(=O)O2)cc1`, the IC50 on Casein kinase II amounted to 13.2 µM. As for `O=C1OC(c2sc3ccccc3c2Cl)=N/C1=C/c1ccc(C(=O)O)cc1`, the IC50 at Casein kinase II was found to be 6 µM. Same read-out and setting: the figure for `Nc1nc2ccc(NC(=S)NC(=O)c3cccs3)cc2s1` is 25.1 µM; for `NC(=O)c1nc(-c2ccncc2)nc2c1[nH]c(=O)n2-c1ccc2c(c1)OCO2` it is 19.6 µM. With `Cc1nn(C)cc1-c1cc(-c2nnc(Nc3ccn(Cc4ccccc4Cl)n3)s2)no1`, the IC50 on Casein kinase II was found to be 3.7 µM. The “competitive inhibition (qualitative)” value in experiment [1] was “Active”. As for `O=c1oc2ccc([N+](=O)[O-])cc2cc1-c1csc(Nc2ccccc2)n1`, the IC50 at Casein kinase II worked out at 8.6 µM. In addition, the “competitive inhibition (qualitative)” value in experiment [1] is “Active”. For the compound `O=C(COC(=O)c1cc(Br)c(Br)s1)Nc1ccc2[nH]c(=O)[nH]c2c1`, the IC50 on Casein kinase II was 15.2 µM.

The values are drawn from ChEMBL document CHEMBL3414502, “Identification of protein kinase CK2 inhibitors using solvent dipole ordering virtual screening” (Eur J Med Chem, 2015).
